Measurements: patent US12371454B2, “Cyclic peptide compound having Kras inhibitory action” (priority 2019, dated 2025)
Positions of bridges follow the written chain, without caps; N, C: chain ends. Non-standard residues stand in square brackets, D forms with d. Residues, ends and D or L forms follow the SMILES beside them. *: point of attachment. hPhe(3-Cl-4-CF3) = N[C@@H](CCc1ccc(C(F)(F)F)c(Cl)c1)C(=O)O; hPhe(4-CF3) = N[C@@H](CCc1ccc(C(F)(F)F)cc1)C(=O)O; NMePhe(4-Cl) = CN[C@@H](Cc1ccc(Cl)cc1)C(=O)O; NMePhe(4-Me) = CN[C@@H](Cc1ccc(C)cc1)C(=O)O; Oic = O=C(O)[C@@H]1C[C@@H]2CCCC[C@@H]2N1; NMeGly(cPent) = CN[C@H](C(=O)O)C1CCCC1; Phe(3-I) = N[C@@H](Cc1cccc(I)c1)C(=O)O; NMe3Pal = CN[C@@H](Cc1cccnc1)C(=O)O; NMeCha = CN[C@@H](CC1CCCCC1)C(=O)O; NMeChg = CN[C@H](C(=O)O)C1CCCCC1; NMeF = CN[C@@H](Cc1ccccc1)C(=O)O; NMeI = CC[C@H](C)[C@H](NC)C(=O)O; hPhe = N[C@@H](CCc1ccccc1)C(=O)O; NMeD = CN[C@@H](CC(=O)O)C(=O)O; NMeL = CN[C@@H](CC(C)C)C(=O)O; NMeV = CN[C@H](C(=O)O)C(C)C; d(β3hA) = C[C@@H](N)CC(=O)O; NMeA = CN[C@@H](C)C(=O)O; NMeAib = CNC(C)(C)C(=O)O; Piperidide = C1CCN(*)CC1; dNMeA = CN[C@H](C)C(=O)O; Ac5c = NC1(C(=O)O)CCCC1; Aze = O=C(O)[C@@H]1CCN1; Aib = CC(C)(N)C(=O)O; Sar = CNCC(=O)O

Molecular target: T1, Kras and SOS1 (biotin-tagged human Kras loaded with GDP, His-tagged human SOS1) (Homo sapiens, UniProt P01116, G12D)
T1 construct: made in house; host or cells: E. coli (stated for Kras only)
T1 sequence (P01116 1-188 isoform P01116-2 G12D): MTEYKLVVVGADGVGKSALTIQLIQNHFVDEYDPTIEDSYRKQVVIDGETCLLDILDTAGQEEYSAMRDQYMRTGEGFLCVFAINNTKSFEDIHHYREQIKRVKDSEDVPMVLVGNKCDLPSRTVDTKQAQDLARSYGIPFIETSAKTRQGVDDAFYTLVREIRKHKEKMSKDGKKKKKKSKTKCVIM
Assay: Protein-protein interaction inhibition between Kras and SOS1 (KrasGl2D-SOS PPI) using AlphaScreen
Type: binding
Conditions: AlphaScreen; biotin-tagged human Kras loaded with GDP, His-tagged human SOS1; read-out: KRAS G12D-SOS PPI IC50
In short: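 Kras was produced in E. coli, purified, then loaded with GDP. It was paired via streptavidin acceptor beads with His-SOS1 held on nickel donor beads, and proximity signal at 520-620 nm was read after 680 nm illumination.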

Compound	IC50
CC[C@H](C)[C@@H]1NC(=O)[C@H](C)N(C)C(=O)C[C@@H](C)NC(=O)[C@H](C(C)C)N(C)C(=O)[C@H](Cc2ccccc2)N(C)C(=O)[C@H](CC(C)C)N(C)C(=O)[C@H](CCc2ccc(C(F)(F)F)cc2)NC(=O)CN(C)C(=O)[C@H](Cc2ccc(Cl)cc2)N(C)C(=O)[C@@H]2CCN2C(=O)CN(C)C1=O [Compound 913] (cyclo([Aze][NMePhe(4-Cl)][Sar][hPhe(4-CF3)][NMeL][NMeF][NMeV][d(β3hA)][NMeA]I[Sar]))	53 nM
CC[C@H](C)[C@@H]1NC(=O)[C@H](CC(C)C)N(C)C(=O)C[C@@H](C(=O)N(C)C)N(C)C(=O)[C@H]([C@@H](C)CC)N(C)C(=O)[C@H](C(C)C)NC(=O)[C@@H](C)NC(=O)[C@H](CCc2ccc(C(F)(F)F)c(Cl)c2)NC(=O)CN(C)C(=O)[C@H](Cc2ccc(C)cc2)N(C)C(=O)[C@@H]2CCN2C(=O)[C@H](C)N(C)C1=O [Compound 915] ([NMeL]I[NMeA][Aze][NMePhe(4-Me)][Sar][hPhe(3-Cl-4-CF3)][dA]V[NMeI][NMeD]-NMe2; lactam N-11)	40 nM
CC[C@H](C)[C@@H]1NC(=O)[C@H](CC(C)C)N(C)C(=O)C[C@@H](C(=O)N2CCCCC2)N(C)C(=O)[C@H](C2CCCCC2)N(C)C(=O)[C@@H](C)NC(=O)[C@@H]2CCCN2C(=O)[C@H](CCc2ccc(C(F)(F)F)c(Cl)c2)NC(=O)CN(C)C(=O)[C@H](CC2CCCCC2)N(C)C(=O)CN(C)C(=O)CN(C)C1=O [Compound 917] ([NMeL]I[Sar][Sar][NMeCha][Sar][hPhe(3-Cl-4-CF3)]P[dA][NMeChg][NMeD]-Piperidide; lactam N-11)	2 nM
CC[C@H](C)[C@@H]1NC(=O)[C@H](C)N(C)C(=O)C[C@@H](C)NC(=O)[C@H](C2CCCC2)N(C)C(=O)C2(CCCC2)NC(=O)[C@@H]2CCCN2C(=O)[C@H](CCc2ccc(C(F)(F)F)c(Cl)c2)NC(=O)[C@@H](C)N(C)C(=O)[C@H](Cc2cccnc2)N(C)C(=O)CN(C)C(=O)CN(C)C1=O [Compound 919] (cyclo([Ac5c][NMeGly(cPent)][d(β3hA)][NMeA]I[Sar][Sar][NMe3Pal][dNMeA][hPhe(3-Cl-4-CF3)]P))	52 nM
CC[C@H](C)[C@@H]1NC(=O)[C@H](CC(C)C)N(C)C(=O)C[C@@H](C)NC(=O)[C@H](CC(C)C)N(C)C(=O)C(C)(C)NC(=O)[C@@H]2C[C@@H]3CCCC[C@@H]3N2C(=O)[C@H](CCc2ccc(C(F)(F)F)cc2)NC(=O)CN(C)C(=O)[C@H](Cc2ccc(Cl)cc2)N(C)C(=O)CN(C)C(=O)CN(C)C1=O [Compound 922] (cyclo([Aib][NMeL][d(β3hA)][NMeL]I[Sar][Sar][NMePhe(4-Cl)][Sar][hPhe(4-CF3)][Oic]))	230 nM
CC[C@H](C)[C@@H]1NC(=O)[C@H](CC(C)C)N(C)C(=O)C[C@@H](C(=O)N2CCCCC2)N(C)C(=O)[C@H](CC(C)C)NC(=O)C(C)(C)N(C)C(=O)[C@H](CCc2ccccc2)NC(=O)[C@H](Cc2cccc(I)c2)NC(=O)CN(C)C(=O)[C@H](CC2CCCCC2)N(C)C(=O)[C@@H]2CCN2C(=O)CN(C)C1=O [Compound 931] ([NMeL]I[Sar][Aze][NMeCha][Sar][Phe(3-I)][hPhe][NMeAib]L[NMeD]-Piperidide; lactam N-11)	270 nM
CC[C@H](C)[C@@H]1NC(=O)[C@H](CC(C)C)N(C)C(=O)C[C@@H](C)NC(=O)[C@H](C2CCCC2)N(C)C(=O)[C@H](C(C)C)NC(=O)[C@@H]2CCCN2C(=O)[C@H](CCc2ccc(C(F)(F)F)c(Cl)c2)NC(=O)CN(C)C(=O)[C@H](Cc2ccc(C)cc2)N(C)C(=O)[C@@H]2CCN2C(=O)[C@H](C)N(C)C1=O [Compound 933] (cyclo([Aze][NMePhe(4-Me)][Sar][hPhe(3-Cl-4-CF3)]PV[NMeGly(cPent)][d(β3hA)][NMeL]I[NMeA]))	83 nM
